Laboratory results published in patent US11945812B2, “Annulated 2-amino-3-cyano thiophenes and derivatives for the treatment of cancer” (Boehringer Ingelheim International GmbH, priority 2020, dated 2024).
pIC50: −log10 of the molar value.

What was measured:
[1] = target: T1, KRAS G12C::SOS1 protein-protein interaction (Homo sapiens, UniProt P01116, C118S/C51S/C80L/G12C); experiment: KRAS::SOS1 AlphaScreen binding assay; conditions: KRAS G12C::SOS1 AlphaScreen
T1 construct: His6 (N); host or cells: E. coli
Description: KRAS::SOS1 AlphaScreen Binding Assay
Reagents: • GST-tagged SOS1 (564_1049_GST_TEV_ECO) produced in-house • GST-TEV-SOS1 (564-1049) is purchased from Viva Biotech Ltd. • The expression construct of KRAS G12C (amino acids 1-169 of reference sequence P01116-2 (uniprot), with additional mutations: C51S, C80L, and C118S) containing a C-terminal avi-tag was obtained by gene synthesis (GeneArt, Thermo Fisher) in donor vector (pDONR-221) and transferred by recombinant cloning into pDEST17 vector bearing an N-terminal His6-tag. The protein was expressed in E. coli and the purified protein was biotinylated with the E. coli biotin ligase (BirA) before usage. • GDP (Sigma Cat No G7127) • AlphaLISA Glutathione Acceptor Beads (PerkinElmer, Cat No AL109) • AlphaScreen Streptavidin Donor Beads (PerkinElmer Cat No 6760002) • Assay plates: Proxiplate-384 PLUS, white (PerkinElmer, Cat No 6008289)
Assay Buffer: • 1×PBS • 0.1% BSA • 0.05% Tween 20
7.5 nM (final assay concentration) KRAS G12C, 10 μM (final assay concentration) GDP and 5 nM (final assay concentration) GST-SOS1 are mixed in assay buffer prior to use and kept at room temperature.
AlphaLISA Glutathione Acceptor Beads and AlphaScreen Streptavidin Donor Beads are mixed in assay buffer at a concentration of 10 μg/mL (final assay concentration) each prior to use and kept at room temperature.
Compounds are diluted to a final start concentration of 100 μM and are tested in duplicate. Assay-ready plates (ARPs) are generated using an Access Labcyte Workstation with a Labcyte Echo 550 or 555 accoustic dispenser. For compound a start concentration of 100 μM, 150 nL of compound solution is transferred per well in 11 concentrations in duplicate with serial 1:5 dilutions.
The assay is run using a fully automated robotic system in a darkened room below 100 Lux. 10 μL of KRAS::SOS1 GDP mix is added into columns 1-24 to the 150 nL of compound solution (final dilution in the assay 1:100, final DMSO concentration 1%).
After 30 minutes incubation time 5 μL of bead mix is added into columns 1-23. Plates are kept at room temperature in a darkened incubator. After further 60 minutes incubation, the signal is measured using a PerkinElmer Envision HTS Multilabel Reader using the AlphaScreen specifications from PerkinElmer. Each plate contains the following controls: • diluted DMSO+KRAS::SOS1 GDP mix+bead mix • diluted DMSO+KRAS::SOS1 GDP mix
IC50 values are calculated and analyzed using a 4 parametric logistic model.
Tables of example compounds disclosed herein contain IC50 values determined using the above assay.

[2] = Plasma protein binding (equilibrium dialysis), mouse plasma; format: in vitro ADME; conditions: read-out: PPB mouse fu
Experimental: Plasma Protein Binding (PPB)
Binding of test compound to plasma was determined using equilibrium dialysis (ED) and quantitative mass spectrometry interfaced with liquid chromatography (LC-MS). In brief, ED was performed with dialysis devices consisting of two chambers separated by a semipermeable membrane with a molecular weight cut-off of 5-10 kg/mol. One chamber was filled with commercially sourced plasma (mouse and human plasma, respectively) or serum (10% FCS in PBS) containing 1-10 μmol/L test compound and the other chamber was filled with phosphate-buffer saline (PBS) with or without dextran. The dialysis chamber was incubated for 3-5 hours at 37° C. After incubation, protein was precipitated from aliquots of each chamber and the concentration of test compound in the supernatant of the plasma-containing compartment (cplasma) and of the buffer-containing compartment (Cbuffer) was determined by LC-MS. The fraction of unbound test compound (not bound to plasma) (fu) was calculated according to the following equation: […]

NCI-H358 cells = experiment: NCI-H358 CTG proliferation assay (120 h) (NSCLC); format: cell-based; conditions: Homo sapiens, read-out: IC50 NCl-H358
Experimental: NCI-H358 CTG Proliferation Assay (120 h) (NSCLC)
NCI-H358 cells (ATCC No. CRL-5807) were dispensed into white bottom opaque 96 well plates (Perkin Elmer cat no. 5680) at a density of 2000 cells per well in 100 μL RPMI-1640 ATCC-Formulation (Gibco # A10491)+10% FCS. Cells were incubated overnight at 37° C. in a humidified tissue culture incubator at 5% CO2. Compounds (10 mM stock in DMSO) were added at logarithmic dose series using the HP Digital Dispenser D300 (Tecan), normalizing for added DMSO. For the TO time point measurement, untreated cells were analyzed at the time of compound addition. Plates were incubated for 120 hours, and cell viability was measured using CellTiter-Glo luminescent cell viability reagent (Promega product code G7570). Viability (stated as percent of control) is defined as relative luminescence units RLU of each well divided by the RLU of cells in DMSO controls. IC50 values were determined from viability measurements by non-linear regression using a four parameter model.

[3] = tested on: ERK phosphorylation in NCI-H358_Cas9_SOS2; experiment: ERK phosphorylation assay 2 (AlphaLISA SureFire Ultra p-ERK1/2), SOS2 knock-out; format: cell-based; conditions: Homo sapiens, NCI-H358; assay 2 (marked with *); read-out: IC50 H358 pERK
Description: ERK Phosphorylation Assay
Materials Used for the Assay;

SW837 cells = experiment: SW837 CTG proliferation assay (CRC); format: cell-based; conditions: Homo sapiens; SW837 CTG proliferation; read-out: IC50 SW837
Experimental: SW837 CTG Proliferation Assay (CRC)
SW837 cells (ATCC #CCL-235) were grown in cell culture flasks (175 cm^2) using L-15 10% FCS, 1% L-Glu, 1×NEAA and 1×Na-Pyrovat. Cultures were incubated at 37° C. and 0% CO2 in a humidified atmosphere, with medium change or subcultivation 2-3 times a week. Materials used for the assay were CulturPlate-384, White Opaque 384-well Microplate, Sterile and Tissue Culture Treated (Perkin Elmer #6007680), Leibovitz L15 Medium and FBS # SH30071.03 (HyClone).
The proliferation assays started (day1) with seeding cells in flat bottom 384 well microtiter plates in 90 μL L-15 10% FCS, 1% L-Glu, 1×NEAA and 1× Na-Pyrovat at a density of 500 cells/well. Any other luminescence compatible plate format is possible. On day 2, 10 μL dilutions of the test compounds covering a concentration range between app. 0, 1 and 10.000 nM were added to the cells. Cells were incubated for 5 days in a humidified, CO2 controlled (no CO2) incubator at 37° C. On day 7 100 μL of Cell Titer Glow reagent (Cell titer Glo Luminescent Cat. No. G7571, Promega) were added to each well and incubated for additional 10 min at room temperature (with agitation). Luminescence was measured on a Wallac Victor using standard luminescence read out. IC50 values were calculated using standard Levenburg Marquard algorithms (GraphPad Prism).

T1 sequence (P01116 1-169 isoform P01116-2 G12C/C51S/C80L/C118S): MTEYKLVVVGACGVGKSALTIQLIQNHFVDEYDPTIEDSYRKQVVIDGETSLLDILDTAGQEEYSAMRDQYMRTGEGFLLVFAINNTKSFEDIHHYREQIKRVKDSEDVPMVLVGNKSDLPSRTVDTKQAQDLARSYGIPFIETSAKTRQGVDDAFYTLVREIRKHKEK

| Compound | pIC50 [1] | fraction unbound [2] | pIC50 (NCI-H358 cells) | pIC50 [3] | pIC50 (SW837 cells) |
| --- | --- | --- | --- | --- | --- |
| C=CC(=O)N1CCN(c2cc(O[C@@H](C)[C@@H]3CCCN3C)nc(-c3cc([C@@]4(C)CCCc5sc(N)c(C#N)c54)on3)n2)[C@H](C)C1 [Ib-1] | 8.80 | 0.011 | 8.73 | 8.77 | 9.17 |
| C=CC(=O)N1CCN(c2cc(O[C@@H](C)[C@@H]3CCCN3C)nc(-c3cc(C4(C)CCCc5sc(N)c(C#N)c54)on3)n2)CC1 (some centres unmarked) [Ib-6] | 8.52 | 0.014 | 8.78 | 8.70 | > 9.00 |
| C=C(F)C(=O)N1CCN(c2cc(O[C@@H](C)[C@@H]3CCCN3C)nc(-c3cc([C@@]4(C)CCCc5sc(N)c(C#N)c54)on3)n2)[C@H](C)C1 [Ib-10] | 7.89 | 0.005 | 7.39 | 7.48 | 7.83 |
| C=C(F)C(=O)N1[C@@H](C)CN(c2cc(O[C@@H](C)[C@@H]3CCCN3C)nc(-c3cc([C@@]4(C)CCCc5sc(N)c(C#N)c54)on3)n2)C[C@@H]1C [Ib-11] | 7.82 | 0.003 | 7.46 | 7.35 | 8.25 |
| COC/C=C/C(=O)N1CCN(c2cc(O[C@@H](C)[C@@H]3CCCN3C)nc(-c3cc([C@@]4(C)CCCc5sc(N)c(C#N)c54)on3)n2)[C@H](C)C1 [Ib-14] | 8.22 | 0.01 | 7.72 | 7.90 | 7.95 |
| C=CC(=O)N1[C@@H](C)CN(c2cc(O[C@@H](C)[C@@H]3CCCN3C)nc(-c3cc([C@@]4(C)CCCc5sc(N)c(C#N)c54)no3)n2)C[C@@H]1C [Ic-4] | 8.72 | 0.011 | 8.60 | 8.47 | 8.79 |
| C=C(F)C(=O)N1[C@@H](C)CN(c2cc(O[C@@H](C)[C@@H]3CCCN3C)nc(-c3cc([C@@]4(C)CCCc5sc(N)c(C#N)c54)no3)n2)C[C@@H]1C [Ic-8] | 7.39 | 0.003 | 7.03 | 6.87 | 7.44 |
| C=CC(=O)N1CCN(c2cc(O[C@@H](C)[C@@H]3CCCN3C)nc(-c3cc([C@@]4(C)CCCc5sc(N)c(C#N)c54)sn3)n2)CC12CC2 [Id-5] | 8.77 | 0.003 | 8.22 | 8.51 | 9.10 |
| C=CC(=O)N1CCC(Oc2cc(O[C@@H](C)[C@@H]3CCCN3C)nc(-c3cc([C@@]4(C)CCCc5sc(N)c(C#N)c54)sn3)n2)CC1 [Id-6] | 8.80 | 0.003 | 9.03 | 8.96 | 9.46 |

The remaining compounds from weak to strong by pIC50 [1], led by results:

| pIC50 [1] | fraction unbound [2] | pIC50 (NCI-H358 cells) | pIC50 [3] | pIC50 (SW837 cells) | Compound |
| --- | --- | --- | --- | --- | --- |
| 7.36 | 0.001 | 7.11 | 7.25 | 7.35 | C=CC(=O)N1CCC(Oc2cc(N3CCN(C)C[C@@H]3C)nc(-c3cc(C4(C)CCCc5sc(N)c(C#N)c54)no3)n2)CC1 (some centres unmarked) [Ic-7] |
| 7.54 | 0.008 | 6.77 | 7.34 | 6.91 | COC/C=C/C(=O)N1CCN(c2cc(O[C@@H](C)[C@@H]3CCCN3C)nc(-c3cc(C4(C)CCCc5sc(N)c(C#N)c54)no3)n2)CC1 (some centres unmarked) [Ic-9] |
| 8.30 | 0.003 | 7.81 | 7.88 | 8.15 | C=CC(=O)N1[C@H](C)CN(c2cc(O[C@@H](C)[C@@H]3CCCN3C)nc(-c3cc([C@@]4(C)CCCc5sc(N)c(C#N)c54)no3)n2)C[C@@H]1C [Ic-5] |
| 8.52 | 0.004 | 8.01 | 8.17 | 7.80 | C=CC(=O)N1CCN(c2cc(O[C@@H](C)[C@@H]3CCCN3C)nc(-c3cc([C@@]4(C)CCCc5sc(N)c(C#N)c54)on3)n2)CC12CC2 [Ib-5] |
| 8.52 |  | 7.62 | 7.91 | 7.98 | C=CC(=O)N1CCN(c2cc(O[C@@H](C)[C@@H]3CCCN3C)nc(-c3cc([C@@]4(C)CCCc5sc(N)c(C#N)c54)no3)n2)CC12CC2 [Ic-3] |
| 8.77 | 0.005 | 8.96 | 8.66 | 9.17 | C=CC(=O)N1[C@@H](C)CN(c2cc(O[C@@H](C)[C@@H]3CCCN3C)nc(-c3cc([C@@]4(C)CCCc5sc(N)c(C#N)c54)sn3)n2)C[C@@H]1C [Id-4] |
| 8.80 | 0.007 | 9.26 | 8.62 | 9.16 | C=CC(=O)N1[C@@H](C)CN(c2cc(O[C@@H](C)[C@@H]3CCCN3C)nc(-c3cc([C@@]4(C)CCCc5sc(N)c(C#N)c54)on3)n2)C[C@@H]1C [Ib-4] |
| 8.80 | 0.021 | 9.36 | 9.15 | 9.70 | C=CC(=O)N1CCN(c2cc(O[C@@H](C)[C@@H]3CCCN3C)nc(-c3cc([C@@]4(C)CCCc5sc(N)c(C#N)c54)sn3)n2)CC1 [Id-1] |
| 8.80 | 0.003 | 8.59 | 8.27 | 8.96 | C=CC(=O)N1[C@H](C)CN(c2cc(O[C@@H](C)[C@@H]3CCCN3C)nc(-c3cc([C@@]4(C)CCCc5sc(N)c(C#N)c54)sn3)n2)C[C@@H]1C [Id-2] |
